ChEMBL document CHEMBL1123271, “Selective monoamine oxidase inhibitors. 4. 4-Aminophenethylamine derivatives with neuron-selective action” (J Med Chem, 1986)

Assays:
[1] = tested on: Rattus norvegicus; assay: Compound was tested for the behavioral changes in reserpinized rats that indicates the release of dopamine by subcuteneous administration; type: functional
[2] = Ratio (PEA/5-HT) of the compound; type: functional
[3] = species: Rattus norvegicus; assay: Compound was tested for its ability to inhibit serotonin uptake; type: functional, organism-based
[4] = Ratio between inhibition of outside DA neurons to that of inside DA neurons; type: functional
[5] = species: Rattus norvegicus; assay: Compound was tested for its ability to inhibit norepinephrine uptake; type: functional, organism-based
[6] = Ratio between inhibition of outside 5-HT neurons to that of inside 5-HT neurons; type: functional
[7] = species: Rattus norvegicus; assay: Compound was tested for its ability to inhibit dopamine uptake; type: functional, organism-based
[8] = species: Rattus norvegicus; assay: Determined from log concentration-inhibition curves using rat brain mitochondrial preparation as enzyme and [14C]5-HT (5-HT) as a substrate; type: functional
[9] = tested on: Rattus norvegicus; assay: Compound was tested for the behavioral changes in reserpinized rats that indicates the release of norepinephrine (reversal of ptosis) by subcuteneous administration; type: functional
[10] = tested on: Rattus norvegicus; assay: Compound was tested for the behavioral changes in reserpinized rats that indicates the release of serotonin (5-HT syndrome) by subcuteneous administration; type: functional
[11] = Ratio between inhibition of outside NE neurons to that of inside NE neurons; type: functional
[12] = species: Rattus norvegicus; assay: Determined from log concentration-inhibition curves using rat brain mitochondrial preparation as enzyme and phenethylamine (PEA) as a substrate; type: functional
[13] = species: Rattus norvegicus; assay: Compound was tested for its ability to inhibit norepinephrine uptake.; type: functional, organism-based

CC(N)Cc1ccc(N)cc1Cl (centres undefined)
Least dose [1]: >131 mg/kg | Ratio [2]: 2780 | IC50 [3]: 3 µM | Ratio [4]: 3.3 | IC50 [5]: 0.19 µM | Ratio [6]: 20 | IC50 [7]: 0.07 µM | IC50 [8]: 0.27 µM | Least dose [9]: 16 mg/kg | Least dose [10]: 33 mg/kg | Ratio [11]: >70 | IC50 [12]: 750 µM

CC(C)(N)Cc1ccc(N)cc1F
Least dose [1]: 264 mg/kg | Ratio [2]: 467 | IC50 [3]: 27 µM | Ratio [4]: 4.1 | IC50 [5]: 0.32 µM | Ratio [6]: 1.6 | IC50 [7]: 1.6 µM | IC50 [8]: 6 µM | Least dose [9]: 264 mg/kg | Least dose [10]: >264 mg/kg | Ratio [11]: >2 | IC50 [12]: 2800 µM

Cc1cc(N)ccc1CC(C)(C)N
Least dose [1]: >269 mg/kg | Ratio [2]: 75 | IC50 [3]: 2.6 µM | IC50 [5]: 0.36 µM | Ratio [6]: >1 | IC50 [7]: 40 µM | IC50 [8]: 20 µM | Least dose [9]: >269 mg/kg | Least dose [10]: >269 mg/kg | IC50 [12]: 1500 µM

CC(N)Cc1ccc(N)cc1F (centres undefined)
Least dose [1]: 35 mg/kg | Ratio [2]: 1070 | IC50 [3]: 1.3 µM | Ratio [4]: 23 | IC50 [5]: 0.05 µM | Ratio [6]: 9 | IC50 [7]: 0.42 µM | IC50 [8]: 0.75 µM | Least dose [9]: 17 mg/kg | Least dose [10]: 140 mg/kg | Ratio [11]: 71 | IC50 [12]: 800 µM

CC(N)Cc1c(Cl)cc(N)cc1Cl (centres undefined)
Least dose [1]: 229 mg/kg | Ratio [2]: 28300 | IC50 [3]: 30 µM | Ratio [4]: 1.5 | IC50 [5]: 2.2 µM | Ratio [6]: 1 | IC50 [7]: 30 µM | IC50 [8]: 0.012 µM | Least dose [9]: 115 mg/kg | Least dose [10]: >229 mg/kg | Ratio [11]: 2.2 | IC50 [12]: 340 µM

Cc1cc(N)ccc1CC(C)N (centres undefined)
Least dose [1]: >270 mg/kg | Ratio [2]: 1560 | IC50 [3]: 9 µM | Ratio [4]: 9.7 | IC50 [5]: 0.32 µM | Ratio [6]: >>5 | IC50 [7]: 11 µM | IC50 [8]: 1.6 µM | Least dose [9]: 270 mg/kg | Least dose [10]: 270 mg/kg | Ratio [11]: >12 | IC50 [12]: 2500 µM

CC(C)(N)Cc1ccc(N)cc1Cl
IC50 [13]: 0.6 µM | Least dose [1]: >247 mg/kg | Ratio [2]: 1310 | IC50 [3]: 5.5 µM | Ratio [4]: 2.5 | Ratio [6]: 6 | IC50 [7]: 15 µM | IC50 [8]: 1.3 µM | Least dose [9]: 247 mg/kg | Least dose [10]: >247 mg/kg | Ratio [11]: 4.5 | IC50 [12]: 1700 µM

CCc1cc(N)ccc1CC(C)N (centres undefined)
Least dose [1]: >269 mg/kg | IC50 [3]: 10 µM | IC50 [5]: 2 µM | IC50 [7]: 20 µM | IC50 [8]: 60 µM | Least dose [9]: >269 mg/kg | Least dose [10]: >269 mg/kg | IC50 [12]: 1200 µM

Cc1cc(N)c(Br)cc1CC(C)N (centres undefined)
Least dose [1]: >211 mg/kg | Ratio [2]: 193 | IC50 [3]: 6.5 µM | Ratio [4]: 2.1 | IC50 [5]: 0.55 µM | Ratio [6]: >2 | IC50 [7]: 2 µM | IC50 [8]: 1.5 µM | Least dose [9]: 211 mg/kg | Least dose [10]: 211 mg/kg | Ratio [11]: >4 | IC50 [12]: 290 µM

CC(N)Cc1ccc(N)cc1 (centres undefined)
Least dose [1]: 72 mg/kg | Ratio [2]: 1030 | IC50 [3]: 20 µM | Ratio [4]: 19 | IC50 [5]: 0.07 µM | Ratio [6]: >>5 | IC50 [7]: 0.16 µM | IC50 [8]: 6.8 µM | Least dose [9]: 72 mg/kg | Least dose [10]: 276 mg/kg | Ratio [11]: >10 | IC50 [12]: 7000 µM
